# “Also recorded” adds a separate entry of the source. Where two headings read alike, the source gives them in different places.
# T1: GRK2 (Homo sapiens, UniProt P25098)
# T1 construct: fused on or other part: hexahistidine tag
# T1 sequence (P25098 1-669 limits assumed): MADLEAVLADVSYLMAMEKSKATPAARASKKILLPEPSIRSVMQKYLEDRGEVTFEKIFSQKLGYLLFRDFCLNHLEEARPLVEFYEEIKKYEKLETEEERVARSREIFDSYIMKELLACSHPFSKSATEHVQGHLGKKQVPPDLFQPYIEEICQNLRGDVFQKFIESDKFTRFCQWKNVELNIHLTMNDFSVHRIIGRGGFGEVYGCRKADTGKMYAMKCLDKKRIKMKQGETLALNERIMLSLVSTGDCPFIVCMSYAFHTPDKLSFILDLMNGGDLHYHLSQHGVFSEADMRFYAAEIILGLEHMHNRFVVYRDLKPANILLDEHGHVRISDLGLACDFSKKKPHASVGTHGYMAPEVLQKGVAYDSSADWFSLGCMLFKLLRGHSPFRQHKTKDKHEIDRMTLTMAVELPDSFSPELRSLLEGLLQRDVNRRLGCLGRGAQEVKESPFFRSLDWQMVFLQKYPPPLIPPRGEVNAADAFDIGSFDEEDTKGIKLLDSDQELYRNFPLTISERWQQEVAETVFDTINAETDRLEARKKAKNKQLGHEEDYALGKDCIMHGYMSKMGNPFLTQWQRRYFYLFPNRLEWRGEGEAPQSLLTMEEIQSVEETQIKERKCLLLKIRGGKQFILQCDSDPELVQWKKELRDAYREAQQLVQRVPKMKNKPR
# Key:
# [1] = target: T1, GRK2; assay: In vitro phosphorylation assay: GRK2-mediated phosphorylation of SRSF1 with purified proteins; format: biochemical; details: for IC50: purified proteins
# Experimental: The GRK2-mediated phosphorylation of SRSF1 was determined with purified proteins in the presence of increasing concentrations of paroxetine or different small molecule compounds. SRSF1 phosphorylation is presented as % of control, which is the SRSF1 phosphorylation in the absence of inhibitor.
# Recombinant human GRK2 protein and GRK2-S670A protein was expressed in and purified from Spodoptera frugiperda (Sf9) cells by the baculoviral expression system. […] Sf9 cells were infected with recombinant baculoviruses at an MOI of 2-3, 48 h after infection cells were harvested by centrifugation, lysed with lysis buffer (300 mM NaCl, 50 mM HEPES, pH 7.5 supplemented with 1% NP40, 1 mM PMSF and protease inhibitor cocktail) and applied to Ni-NTA chromatography. After overnight incubation at 4° C., unbound proteins were removed by washing with lysis buffer (20× column volumes) followed by 1× column volume of 30 mM imidazole-containing lysis buffer. Bound GRK2 was eluted by 300 mM imidazole in lysis buffer, desalted by PD10 column chromatograpy, supplemented with 20% glycerol and stored at −80° C. for further use.
# Protein-expressing bacteria were collected by centrifugation, frozen in liquid nitrogen and thawed on ice in lysis buffer (8 M urea, 300 mM NaCl, 50 mM HEPES, 10 mM imidazole, pH 7.5), which was supplemented with 2-mercaptoethanol (0.7 ml/L) freshly before use (10 ml of lysis buffer for a bacterial pellet from 200 ml of culture medium). The bacterial lysate was incubated for 1 h at room temperature, sonicated and centrifuged for 15 min at 4000×g at 4° C. The supernatant was applied to the Ni-NTA column matrix prewashed with 20 ml of lysis buffer. […] Finally, proteins were eluted with elution buffer (300 mM NaCl, 50 mM HEPES, 500 mM imidazole, pH 7.5, supplemented freshly with 0.7 ml/L 2-mercaptoethanol). Buffer of eluted proteins was exchanged to 150 mM NaCl, 50 mM HEPES (pH 7.5) by PD10 column chromatography.
# Recombinant proteins were used for an in vitro phosphorylation assay with GRK2 and GRK2-S670A. […] After an incubation for 30 min at 30° C., the reaction was stopped by the addition of 5×SDS-Laemmli buffer. Proteins were separated by SDS-PAGE and subjected to autoradiography. […] After an incubation for 30-60 min at 30° C., the phosphorylation was stopped by the addition of 5 volumes of ice-cold reaction buffer. The reaction mixtures were immediately applied to glass fiber filters (GF/C, WHATMAN™, GE Healthcare Life Sciences, Glattbrugg, Switzerland). After three washing steps with 5 ml of reaction buffer, filter-bound radioactivity was determined in a β-counter.
# [2] = test system: GRK2-mediated phosphorylation of SRSF1/Srsf1; assay: Immunoblot of SRSF1/Srsf1 phosphorylation in isolated neonatal cardiomyocytes from Tg-SRSF1 mice; format: cell-based, mouse; details: 10 microM, 60 h, relative to vehicle
# Experimental: A, The GRK2-mediated phosphorylation of SRSF1/Srsf1 was determined by immunoblot in lysates from isolated neonatal cardiomyocytes from Tg-SRSF1 mice after incubation for 60 h with 10 microM of paroxetine, 1-(1,3-benzodioxol-5-yl)-4-(cyclopropane-carbonyl)-3-hydroxy-2-phenyl-2H-pyrrol-5-one (“Compound-1”) or 4-(1,3-benzodioxol-5-yl)pyrimidine (“Compound-4”) relative to vehicle-treated control (“C”) cardiomyocytes. B, Immunoblot detection of GRK2-mediated phosphorylation of SRSF1 (pSRSF1) was performed with lysates from HEK (human embryonic kidney) cells incubated for 60 h with 10 microM of 4-(1,3-benzodioxol-5-yl)pyrimidine (“Compound-4”), 1-(1,3-benzodioxol-5-ylmethyl)-5-(4-chlorophenyl)-2-methyl-pyrrole-3-carboxamide (“Compound-24”) or (4R)-N3-(1,3-benzodioxol-5-ylmethyl)-N4-[[3-(trifluoromethyl)phenyl]-methyl]pyrrolidine-3,4-dicarboxamide (“Compound-5”) relative to vehicle-treated controls (“C”).
# Briefly, the hearts were dissected out from 2-3 day-old mice, atria and aorta were removed, and the hearts were transferred into sterile buffer A (137 mM NaCl, 5.36 mM KCl, 0.81 mM MgSO4, 5.55 mM dextrose, 0.44 mM KH2PO4, 0.34 mM Na2HPO4, 20 mM HEPES, 100 U/ml penicillin, 100 microg/ml streptomycin, pH 7.4). […]
# [3] = read-out: IC50 value, inhibition of GRK2-mediated SRSF1 phosphorylation
"IC50 [1, 3] [nM]",IC50 value lower than that of paroxetine ([1]; GRK2-mediated SRSF1 phosphorylation),"IC50 ([1]; n=4, read-out: IC50 value, inhibition of GRK2-mediated phosphorylation of SRSF1) [nM]",Molecule,SRSF1/Srsf1 phosphorylation in isolated Tg-SRSF1 cardiomyocytes [2],Inhibition of the in vitro phosphorylation of SRSF1 by GRK2 ([1]; result in words)
1870,–,–,"c1cc(-c2ccc3c(c2)OCO3)ncn1 [Compound-4, 4-(1,3-benzodioxol-5-yl)pyrimidine]",decreased,–
450,more than 5 fold,450,"O=C(C1=C(O)C(c2ccccc2)N(c2ccc3c(c2)OCO3)C1=O)C1CC1 (stereo not shown) [Compound-1, 1-(1,3-benzodioxol-5-yl)-4-(cyclopropane-carbonyl)-3-hydroxy-2-phenyl-2H-pyrrol-5-one]",decreased,–
–,–,–,"RKIP: raf kinase inhibitor protein, a dual-specific GRK2 and Raf kinase inhibitor (protein, UniProt P30086 2-187, looked up) Phosphatidylethanolamine-bindi …: PVDLSKWSGPLSLQEVDEQPQHPLHVTYAGAAVDELGKVLTPTQVKNRPTSISWDGLDSGKLYTLVLTDPDAPSRKDPKYREWHHFLVVNMKGNDISSGTVLSDYVGSGPPKGTGLHRYVWLVYEQDRPLKCDEPILSNRSGDHRGKFKVASFRKKYELRAPVAGTCYQAEWDDYVPKLYEQLSGK",–,does not inhibit; also recorded: did not inhibit

# — patent US11628159B2, “Cell-protective compounds and their use” (ETH ZURICH, priority 2017, dated 2023)
